Measurements published in patent publication US20250228855A1, “PYRAZINAMIDE COMPOUNDS” (The General Hospital Corporation, priority 2022, published 2025).
pKd: −log10 of the molar value. Where a name gives a salt, the structure may show the parent alone. Read-outs that look alike come from different tables or passages of the source.

Assays:
PfcProRS = PfcProRS (Plasmodium falciparum, UniProt Q8I5R7); assay: TR-FRET ligand displacement assay with tracer MAT379, PfcProRS; type: binding
HsProRS = biological target: T1, HsProRS (Homo sapiens, UniProt P07814); assay: TR-FRET ligand displacement assay with tracer MAT379, HsProRS; type: binding
T1 sequence (P07814 1007-1512 limits assumed): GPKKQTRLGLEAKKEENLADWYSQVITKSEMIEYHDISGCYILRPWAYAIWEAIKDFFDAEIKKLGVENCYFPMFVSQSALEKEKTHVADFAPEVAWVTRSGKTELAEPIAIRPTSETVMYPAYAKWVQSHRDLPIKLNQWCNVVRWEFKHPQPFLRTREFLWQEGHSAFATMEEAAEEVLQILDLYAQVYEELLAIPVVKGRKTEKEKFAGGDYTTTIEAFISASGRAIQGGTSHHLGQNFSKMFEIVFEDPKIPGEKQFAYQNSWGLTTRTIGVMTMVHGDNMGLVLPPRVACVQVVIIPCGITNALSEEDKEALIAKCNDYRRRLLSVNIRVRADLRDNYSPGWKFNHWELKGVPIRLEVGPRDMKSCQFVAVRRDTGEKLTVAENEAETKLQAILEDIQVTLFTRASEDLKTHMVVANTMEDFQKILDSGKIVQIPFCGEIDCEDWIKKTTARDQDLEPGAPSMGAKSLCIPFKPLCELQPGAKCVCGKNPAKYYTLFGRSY

P. falciparum Dd2-2D4 = assay: P. falciparum asexual blood stage growth assay, wild-type Dd2-2D4; conditions: for EC50: Plasmodium falciparum, DD2, 72 h, read-out: Dd2 (EC50 [nM]) wt
Procedure: Asexual blood stage (ABS) P. falciparum parasites were treated with test compounds at varying concentrations for 72 h, followed by quantification of parasite growth by SYBR Green staining.
P. falciparum Asexual Blood Stage Growth Assay: This assay was performed as previously described.

[1] = read-out: HsProRS (KD [nM]) +proline, 100 μM Pro
[2] = no proline, no ATP, read-out: PfcProRS (KD [nM]) −
[3] = no proline, no ATP, read-out: HsProRS (KD [nM]) −
[4] = PfcProRS (KD [nM]) +proline, 100 μM Pro

PfcProRS, sequence (Q8I5R7 whole entry): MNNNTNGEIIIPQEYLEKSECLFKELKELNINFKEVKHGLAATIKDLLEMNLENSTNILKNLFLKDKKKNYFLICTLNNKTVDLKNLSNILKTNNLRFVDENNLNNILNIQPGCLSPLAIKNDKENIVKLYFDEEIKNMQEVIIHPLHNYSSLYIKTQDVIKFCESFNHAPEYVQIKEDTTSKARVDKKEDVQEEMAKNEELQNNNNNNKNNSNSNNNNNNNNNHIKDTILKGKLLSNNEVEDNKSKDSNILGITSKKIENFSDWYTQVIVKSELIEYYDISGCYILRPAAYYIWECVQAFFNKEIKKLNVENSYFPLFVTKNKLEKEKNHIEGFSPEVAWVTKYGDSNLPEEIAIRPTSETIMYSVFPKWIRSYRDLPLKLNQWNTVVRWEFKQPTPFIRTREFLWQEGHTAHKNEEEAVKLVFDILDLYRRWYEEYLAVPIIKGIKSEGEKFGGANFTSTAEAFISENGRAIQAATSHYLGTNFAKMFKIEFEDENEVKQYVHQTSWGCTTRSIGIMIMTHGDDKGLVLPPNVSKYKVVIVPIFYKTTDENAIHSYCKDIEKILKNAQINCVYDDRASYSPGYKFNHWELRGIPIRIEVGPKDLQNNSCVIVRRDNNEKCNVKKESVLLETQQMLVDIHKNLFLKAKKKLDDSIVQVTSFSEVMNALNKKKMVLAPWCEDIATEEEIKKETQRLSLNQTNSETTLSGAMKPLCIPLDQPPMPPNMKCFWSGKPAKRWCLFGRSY

Row | SMILES | fold lower affinity / reduced biochemical potency relative to MAT436 (PfcProRS) | fold lower affinity / reduced biochemical potency relative to MAT436 (PfcProRS; listed as 40) | Kd (HsProRS; [1]) | fold less active than MAT436 against ABS P. falciparum (P. falciparum Dd2-2D4) | Kd (PfcProRS; [2]) | Kd (HsProRS; [3]) | EC50 (P. falciparum Dd2-2D4) | Kd (PfcProRS; [4]) | pKd (HsProRS) | Kd (HsProRS; HsProRS (KD [nM]) −)
1 | O=C(C[C@@H]1NCCC[C@@H]1OC(=O)NS(=O)(=O)N1CCN(C(=O)Nc2nccnc2C(=O)NC2Cc3ccccc3C2)CC1)Cn1cnc2cc(Br)c(Cl)cc2c1=O (relative stereo) [iso-MAT436(40), cis-2-(3-(7-bromo-6-chloro-4-oxoquinazolin-3(4H)-yl)-2-oxopropyl)piperidin-3-yl ((4-((3-((2,3-dihydro-1H-inden-2-yl)carbamoyl)pyrazin-2-yl)carbamoyl)piperazin-1-yl)sulfonyl)carbamate] | ~10 fold | 5-10 fold | 20.8 nM | 3 fold |  |  |  |  |  | 
2 | CC(C)N(C(=O)Nc1nccnc1C(=O)NC1Cc2ccccc2C1)C(C)C [Compound 5, N-(2,3-dihydro-1H-inden-2-yl)-3-(3,3-diisopropylureido)pyrazine-2-carboxamide] |  |  |  |  | > 2860 nM | > 8720 nM | > 10000 nM |  |  | 
3 | CC(C)(C)OC(=O)NC1CCN(C(=O)Nc2nccnc2C(=O)NC2Cc3ccccc3C2)CC1 [Compound 7, tert-butyl (1-((3-((2,3-dihydro-1H-inden-2-yl)carbamoyl)pyrazin-2-yl)carbamoyl)piperidin-4-yl)carbamate] |  |  | 34.8 nM |  |  | 22.1 nM |  |  |  | 
4 | NC1CCN(C(=O)Nc2nccnc2C(=O)NC2Cc3ccccc3C2)CC1 [Compound 8, 3-(4-aminopiperidine-1-carboxamido)-N-(2,3-dihydro-1H-inden-2-yl)pyrazine-2-carboxamide dihydrochloride] |  |  |  |  | > 2860 nM |  |  | > 2180 nM | < 5.29 | > 8720 nM
5 | NCC1CCN(C(=O)Nc2nccnc2C(=O)NC2Cc3ccccc3C2)CC1 [Compound 10, 3-(4-(aminomethyl)piperidine-1-carboxamido)-N-(2,3-dihydro-1H-inden-2-yl)pyrazine-2-carboxamide dihydrochloride] |  |  | 1360 nM |  | > 2860 nM |  |  | > 2180 nM |  | > 8720 nM
6 | O=C(NC1Cc2ccccc2C1)c1nccnc1NC(=O)N1CCC(CO)CC1 [Compound 11, N-(2,3-dihydro-1H-inden-2-yl)-3-(4-(hydroxymethyl)piperidine-1-carboxamido)pyrazine-2-carboxamide] |  |  |  |  | 299 nM | 265 nM | 712 nM |  |  | 
7 | CC(C)(C)OC(=O)N1CCN(C(=O)Nc2nccnc2C(=O)NC2Cc3ccccc3C2)CC1 [Compound 13, tert-butyl 4-((3-((2,3-dihydro-1H-inden-2-yl)carbamoyl)pyrazin-2-yl)carbamoyl)piperazine-1-carboxylate] |  |  |  |  | > 2860 nM | > 8720 nM |  | > 2180 nM | < 5.29 | 
8 | O=C(NC1Cc2ccccc2C1)c1nccnc1NC(=O)N1CCNCC1 [Compound 14, N-(2,3-dihydro-1H-inden-2-yl)-3-(piperazine-1-carboxamido)pyrazine-2-carboxamide dihydrochloride] |  |  | 347 nM |  | > 2860 nM |  |  | 1630 nM |  | > 8720 nM
9 | CC(C)(C)OC(=O)NC1(C(=O)Nc2nccnc2C(=O)NC2Cc3ccccc3C2)CCCCC1 [Compound 16, tert-butyl (1-((3-((2,3-dihydro-1H-inden-2-yl)carbamoyl)pyrazin-2-yl)carbamoyl)cyclohexyl)carbamate] |  |  |  |  | > 2860 nM | > 8720 nM | 6110 nM | > 2180 nM | < 5.29 | 
10 | NC1(C(=O)Nc2nccnc2C(=O)NC2Cc3ccccc3C2)CCCCC1 [Compound 17, 3-(1-aminocyclohexane-1-carboxamido)-N-(2,3-dihydro-1H-inden-2-yl)pyrazine-2-carboxamide] |  |  | 25.5 nM |  | 1390 nM | 4430 nM | 5790 nM | 131 nM |  | 
11 | O=C(NC1Cc2ccccc2C1)c1nccnc1NC(=O)C1CCOCC1 [Compound 18, N-(2,3-dihydro-1H-inden-2-yl)-3-(tetrahydro-2H-pyran-4-carboxamido)pyrazine-2-carboxamide] |  |  | 225 nM |  | > 2860 nM | 7400 nM | > 20000 nM | 1590 nM |  | 
12 | O=C(Nc1nccnc1C(=O)NC1Cc2ccccc2C1)c1ccccc1 [Compound 21, 3-benzamido-N-(2,3-dihydro-1H-inden-2-yl)pyrazine-2-carboxamide] |  |  | 140 nM |  | > 2860 nM | 7830 nM | 9600 nM | 1430 nM |  | 
13 | O=C(O)CCCC(=O)Nc1nccnc1C(=O)NC1Cc2ccccc2C1 [Compound 22, 5-((3-((2,3-dihydro-1H-inden-2-yl)carbamoyl)pyrazin-2-yl)amino)-5-oxopentanoic acid] |  |  |  |  | > 2860 nM | > 8720 nM | 12300 nM | > 2180 nM | < 5.29 | 
